Reference: PMC12587574, “Mass balance, pharmacokinetics, metabolism, and excretion of radiolabeled acoziborole, a potential novel treatment for human African trypanosomiasis, following single microtracer oral dose to humans” (Antimicrobial Agents and Chemotherapy, 2025)
Like-named read-outs stand apart in the source and are kept apart here.

What was measured:
[1] = design: method as in PMID 21738803; settings: NHPs, cited from earlier work
[2] = design: method as in PMID 21738803; settings: oral, mice; cited from earlier work
[3] = Distribution study of [14C]-acoziborole in Sprague-Dawley rats; format: in vivo; settings: 10 mg/kg (200 µCi/kg)
[4] = design: method as in PMID 21738803; settings: liver sub-cellular fractions from rodents, dogs, cynomolgus monkeys, and humans; cited from earlier work
[5] = design: method as in PMID 21738803; settings: rats; cited from earlier work
MDCK-MDR1 cell monolayer = settings: cited from earlier work

CC1(C)OB(O)c2cc(NC(=O)c3ccc(F)cc3C(F)(F)F)ccc21 [acoziborole]
concentration in the CSF as percentage of the plasma concentration ([1]; at each time point): approximately 5%
absolute bioavailability ([1]; oral): 89%
absolute bioavailability [2]: 55%
radioactivity collected in feces during 7 days, share of total radioactivity ([3]; female rats): > 73%
radioactivity in combined feces and urine during 7 days, share of total radioactivity ([3]; female rats): > 86%
radioactivity collected in feces during 7 days, share of total radioactivity ([3]; male rats): over 66%
radioactivity in combined feces and urine during 7 days, share of total radioactivity ([3]; male rats): over 85%
metabolic stability [4]: metabolically stable
brain to plasma AUC0–24h ratio [5]: 44%
apparent permeability (MDCK-MDR1 cell monolayer): 77.6 ×10⁻⁶ cm/s
